Test results taken from patent publication US20130252930A1 (BIOMARIN PHARMACEUTICAL INC., priority 2010, published 2013).

Assays:
[1] = biological target: T1, CYP17 (human testicular microsome) (Homo sapiens, UniProt P05093); test: CYP17 enzymatic assay (IC50) (Biological Example 4); type: biochemical; conditions: human testicular microsome, DHEA by ELISA; read-out: Biological Example No. 4: CYP17 enzymatic assay IC50
T1 construct: using microsomal fraction from human testis (Celsis Cat #S00110) as the enzyme source; tissue Celsis S00110; host or cells: human testis microsomal fraction
T1 sequence (P05093 1-508): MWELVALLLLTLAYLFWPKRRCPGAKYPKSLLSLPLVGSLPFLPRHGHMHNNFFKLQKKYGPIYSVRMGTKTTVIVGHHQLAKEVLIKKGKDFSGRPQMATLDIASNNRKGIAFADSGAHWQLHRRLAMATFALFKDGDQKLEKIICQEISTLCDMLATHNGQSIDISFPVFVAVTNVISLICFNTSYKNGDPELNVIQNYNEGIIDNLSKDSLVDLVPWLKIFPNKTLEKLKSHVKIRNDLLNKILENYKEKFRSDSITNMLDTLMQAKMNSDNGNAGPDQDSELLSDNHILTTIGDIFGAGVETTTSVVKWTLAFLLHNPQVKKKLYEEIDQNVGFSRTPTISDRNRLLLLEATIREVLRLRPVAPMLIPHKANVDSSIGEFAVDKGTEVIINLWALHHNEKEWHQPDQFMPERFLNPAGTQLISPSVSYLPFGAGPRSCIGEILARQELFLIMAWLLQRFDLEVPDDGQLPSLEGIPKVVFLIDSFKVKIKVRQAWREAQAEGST

[2] = biological target: T1, CYP17 (human testicular microsome); test: CYP17 enzymatic assay (% inhibition at 10 nM), version 1 (Biological Example 5); type: biochemical; conditions: 10 nM compound, DHEA by ELISA, read-out: Biological Example No. 5: CYP17 percent inhibition at 10 nM (version 1)
[3] = Rat liver microsome stability assay (Biological Example 8a); conditions: liver microsomes, pH 7.4
Description: Each test compound (1.5 μM, 30 μL) was incubated with rat (BD Gentest, Cat No. 452501) or human (BD Gentest, Cat No. 452161) liver microsomes (0.75 mg/mL, 0.1 M potassium phosphate buffer, 1.0 mM EDTA, pH 7.4) in 96 well plates. The reaction was started with addition of excess NADPH (5 mg/mL, 15 μL in 0.1 M potassium phosphate buffer, 1.0 mM EDTA, pH 7.4), the total volume is 45 μL (compound final concentration was 1 μM). The incubations were terminated at time zero and at 5, 15, 30, and 60 minutes by addition of 135 μL/excess ACN containing internal standard (1S). After quenching, the reaction mixtures was centrifuged (Eppendorf Centrifuge 5810R) at 3220×g for 10 min (4° C.). 50 μL of the supernatant was transferred from each well into a 96-well sample plate containing 50 μL of ultra-pure water (Millipore) for LC-MS/MS analysis. The half-life T1/2=0.693/K (K is the rate constant from a plot of log [concentration] vs. incubation time) was calculated.

Row | Compound | IC50 [1] [nM] | inhibition at 0.01 µM [2] [%] | half-life at 1 μM [3] [min]
1 | Cc1cncc(C2=CC[C@H]3[C@@H]4CCN5C(=O)CCCC[C@]5(C)[C@H]4CC[C@]23C)c1 [Compound 39, (11aR,13aS)-11a,13a-dimethyl-1-(5-methylpyridin-3-yl)-3b,4,5,8,9,10,11,11a,11b,12,13,13a-dodecahydro-3H-azepino[2,1-a]cyclopenta[f]isoquinolin-7(3aH)-one] | < 11 | 50 to 80 | 1 to 10
2 | COc1cncc(C2=CC[C@H]3[C@@H]4CCN5C(=O)CCCC[C@]5(C)[C@H]4CC[C@]23C)c1 [Compound 40, (11aR,13aS)-1-(5-methoxypyridin-3-yl)-11a,13a-dimethyl-3b,4,5,8,9,10,11,11a,11b,12,13,13a-dodecahydro-3H-azepino[2,1-a]cyclopenta[f]isoquinolin-7(3aH)-one] | < 11 | > 80 | 1 to 10
3 | CCc1cncc(C2=CC[C@H]3[C@@H]4CCN5C(=O)CCCC[C@]5(C)[C@H]4CC[C@]23C)c1 [Compound 41, (11aR,13aS)-1-(5-ethylpyridin-3-yl)-11a,13a-dimethyl-3b,4,5,8,9,10,11,11a,11b,12,13,13a-dodecahydro-3H-azepino[2,1-a]cyclopenta[f]isoquinolin-7(3aH)-one] | < 11 | > 80 | 1 to 10
4 | CCCOc1cncc(C2=CC[C@H]3[C@@H]4CCN5CCCCC[C@]5(C)[C@H]4CC[C@]23C)c1 [Compound 46, (11aR,13aS)-11a,13a-dimethyl-1-(5-propoxypyridin-3-yl)-3a,3b,4,5,7,8,9,10,11,11a,11b,12,13,13a-tetradecahydro-3H-azepino[2,1-a]cyclopenta[f]isoquinoline] |  | 50 to 80 | 10 to 60
5 | CCc1cncc(C2=CC[C@H]3[C@@H]4CCN5CCCCC[C@]5(C)[C@H]4CC[C@]23C)c1 [Compound 48, (11aR,13aS)-1-(5-ethylpyridin-3-yl)-11a,13a-dimethyl-3a,3b,4,5,7,8,9,10,11,11a,11b,12,13,13a-tetradecahydro-3H-azepino[2,1-a]cyclopenta[f]isoquinoline] |  | 1 to 50 | 1 to 10
6 | C[C@]12CCNC(=O)C=C1CC[C@@H]1[C@@H]2CC[C@]2(C)C(n3ncnn3)=CC[C@@H]12 [Compound 63] |  | > 80 | 1 to 10
7 | Cc1cncc(C2=CC[C@H]3[C@@H]4CC(O)C5CCCC[C@]5(C)[C@H]4CC[C@]23C)c1 (stereo partly drawn) [Compound 70, (10R,13S)-10,13-dimethyl-17-(5-methylpyridin-3-yl)-2,3,4,5,6,7,8,9,10,11,12,13,14,15-tetradecahydro-1H-cyclopenta[a]phenanthren-6-ol] | < 11 |  | 1 to 10
8 | Cc1cncc(C2=CC[C@H]3[C@@H]4CC(=O)C5CCCC[C@]5(C)[C@H]4CC[C@]23C)c1 (stereo partly drawn) [Compound 71, (10R,13S)-10,13-dimethyl-17-(5-methylpyridin-3-yl)-2,3,4,5,7,8,9,11,12,13,14,15-dodecahydro-1H-cyclopenta[a]phenanthren-6(10H)-one] | < 11 |  | 1 to 10
9 | COc1cncc(C2=CC[C@H]3[C@@H]4CC(=O)C5CCCC[C@]5(C)[C@H]4CC[C@]23C)c1 (stereo partly drawn) [Compound 72, (10R,13S)-17-(5-methoxypyridin-3-yl)-10,13-dimethyl-2,3,4,5,7,8,9,11,12,13,14,15-dodecahydro-1H-cyclopenta[a]phenanthren-6(10H)-one] | < 11 |  | 1 to 10
10 | C[C@]12CCCCC[C@@H]1CC[C@@H]1[C@@H]2CC[C@]2(C)C(n3ccnc3)=CC[C@@H]12 [Compound 97, 1-((3aS,3bR,5aR,10aS,10bS,12aS)-10a,12a-dimethyl-3,3a,3b,4,5,5a,6,7,8,9,10,10a,10b,11,12,12a-hexadecahydrocyclohepta[a]cyclopenta[f]naphthalen-1-yl)-1H-imidazole] | < 11 | 50 to 80 | 10 to 60
11 | CN1C(=O)COC[C@@]2(C)C1CC[C@@H]1[C@@H]2CC[C@]2(C)C(c3cccnc3)=CC[C@@H]12 (stereo partly drawn) [Compound 98, (5aR,5bS,7aS,10aS,10bS)-1,5a,7a-trimethyl-8-(pyridin-3-yl)-5,5a,5b,6,7,7a,10,10a,10b,11,12,12a-dodecahydro-1H-cyclopenta[5,6]naphtho[2,1-e][1,4]oxazepin-2(3H)-one] | < 11 | 50 to 80 | 1 to 10
12 | Cc1cncc(C2=CC[C@H]3[C@@H]4CC[C@H]5COC(=O)CC[C@]5(C)[C@H]4CC[C@]23C)c1 [Compound 119, (5aR,5bS,7aS,10aS,10bR,12aR)-5a,7a-dimethyl-8-(5-methylpyridin-3-yl)-5,5a,5b,6,7,7a,10,10a,10b,11,12,12a-dodecahydro-1H-cyclopenta[5,6]naphtho[2,1-c]oxepin-3(4H)-one] |  | 1 to 50 | 1 to 10
13 | C[C@]12CCOCC[C@@H]1CC[C@@H]1[C@@H]2CC[C@]2(C)C(c3cccnc3)=CC[C@@H]12 [Compound 120, 3-((5aS,5bS,7aS,10aS,10bR,12aS)-5a,7a-dimethyl-2,4,5,5a,5b,6,7,7a,10,10a,10b,11,12,12a-tetradecahydro-1H-cyclopenta[5,6]naphtho[1,2-d]oxepin-8-yl)pyridine] | < 11 | > 80 | 1 to 10
14 | C[C@]12CCCOC[C@H]1CC[C@@H]1[C@@H]2CC[C@]2(C)C(c3cccnc3)=CC[C@@H]12 [Compound 121, 3-((5aR,5bS,7aS,10aS,10bR,12aS)-5a,7a-dimethyl-3,4,5,5a,5b,6,7,7a,10,10a,10b,11,12,12a-tetradecahydro-1H-cyclopenta[5,6]naphtho[2,1-c]oxepin-8-yl)pyridine] | < 11 | > 80 | 1 to 10
15 | COc1cncc(C2=CC[C@H]3[C@@H]4CC[C@H]5CCOCC[C@]5(C)[C@H]4CC[C@]23C)c1 [Compound 122, 3-((5aS,5bS,7aS,10aS,10bR,12aS)-5a,7a-dimethyl-2,4,5,5a,5b,6,7,7a,10,10a,10b,11,12,12a-tetradecahydro-1H-cyclopenta[5,6]naphtho[1,2-d]oxepin-8-yl)-5-methoxypyridine] | < 11 | 50 to 80 | 1 to 10
16 | COc1cncc(C2=CC[C@H]3[C@@H]4CC[C@H]5COCCC[C@]5(C)[C@H]4CC[C@]23C)c1 [Compound 123, 3-((5aR,5bS,7aS,10aS,10bR,12aR)-5a,7a-dimethyl-3,4,5,5a,5b,6,7,7a,10,10a,10b,11,12,12a-tetradecahydro-1H-cyclopenta[5,6]naphtho[2,1-c]oxepin-8-yl)-5-methoxypyridine] | < 11 | 50 to 80 | 1 to 10
17 | CCOc1cncc(C2=CC[C@H]3[C@@H]4CC[C@H]5COCCC[C@]5(C)[C@H]4CC[C@]23C)c1 [Compound 125, 3-((5aR,5bS,7aS,10aS,10bR,12aR)-5a,7a-dimethyl-3,4,5,5a,5b,6,7,7a,10,10a,10b,11,12,12a-tetradecahydro-1H-cyclopenta[5,6]naphtho[2,1-c]oxepin-8-yl)-5-ethoxypyridine] | < 11 | 50 to 80 | 1 to 10
